Assay: log P determination by HPLC on reverse-phase column (EEC Directive 79/831 Annex V.A8)
Type: physicochemical
Conditions: not given
Experimental: The log P values stated in the foregoing tables and preparation examples are determined in accordance with EEC Directive 79/831 Annex V.A8 by means of HPLC (High Performance Liquid Chromatography) on a reverse-phase column (C 18). Temperature: 43° C.
The determination by LC-MS in the acidic range takes place at a pH of 2.7 using 0.1% aqueous formic acid and acetonitrile (containing 0.1% formic acid) as eluents; linear gradient from 10% acetonitrile to 95% acetonitrile.
Calibration is with unbranched alkan-2-ones (having 3 to 16 carbon atoms) of known log P value (log P values determined from the retention times by linear interpolation between two successive alkanones).

Structure (SMILES)	logP
Cc1cc(Cl)cc(C(=O)NC(C)C)c1NC(=O)c1cc(Cn2nnc(-c3ccc(Br)cc3)n2)nn1-c1ncccc1Cl [I-1-151]	4.20
CSC[C@H](C)NC(=O)c1cc(Cl)cc(C)c1NC(=O)c1cc(Cn2nnc(-c3ccc(Br)cc3)n2)nn1-c1ncccc1Cl [I-1-152]	4.41
CNC(=O)c1cc(Cl)cc(C)c1NC(=O)c1cc(Cn2cnc(-c3ccc(Cl)cc3)n2)nn1-c1ncccc1Cl [I-1-153]	3.07

Same assay, conditions: HPLC on reverse-phase column

Structure (SMILES)	logP
Cc1cc(Br)cc(C(=O)NC2CC2)c1NC(=O)c1cc(Cn2cc(Br)c(C(F)(F)F)n2)nn1-c1ncccc1Cl [I-1-93]	3.69
Cc1cc(Cl)cc(C(N)=O)c1NC(=O)c1cc(Cn2nnn(-c3cc(C(F)(F)F)cc(C(F)(F)F)c3)c2=O)nn1-c1ncccc1Cl [I-1-94]	3.85
Cc1cc(Cl)cc(C(=O)NCC#N)c1NC(=O)c1cc(Cn2nnn(-c3cc(C(F)(F)F)cc(C(F)(F)F)c3)c2=O)nn1-c1ncccc1Cl [I-1-95]	4.01
CNC(=O)c1cc(Cl)cc(C)c1NC(=O)c1cc(Cn2nnn(-c3cc(Cl)cc(Cl)c3)c2=O)nn1-c1ncccc1Cl [I-1-96]	3.90
Cc1cc(Br)cc(C(=O)NCC#N)c1NC(=O)c1cc(Cn2cc(Br)c(C(F)(F)F)n2)nn1-c1ncccc1Cl [I-1-97]	3.45
CSCC(C)(C)NC(=O)c1cc(Br)cc(C)c1NC(=O)c1cc(Cn2cc(Br)c(C(F)(F)F)n2)nn1-c1ncccc1Cl [I-1-98]	4.47
CSCC(C)NC(=O)c1cc(Br)cc(C)c1NC(=O)c1cc(Cn2cc(Br)c(C(F)(F)F)n2)nn1-c1ncccc1Cl (stereo not drawn) [I-1-99]	4.10
Cc1cc(Br)cc(C(N)=O)c1NC(=O)c1cc(Cn2cc(Br)c(C(F)(F)F)n2)nn1-c1ncccc1Cl [I-1-100]	3.24
Cc1cc(Br)cc(C(=O)NC(C)CS(C)(=O)=O)c1NC(=O)c1cc(Cn2cc(Br)c(C(F)(F)F)n2)nn1-c1ncccc1Cl (stereo not drawn) [I-1-101]	3.32
CNC(=O)c1cc(Cl)cc(C)c1NC(=O)c1cc(Cn2ccc(Cl)n2)nn1-c1ncccc1Cl [I-1-102]	2.51
Cc1cc(Cl)cc(C(=O)NC(C)C)c1NC(=O)c1cc(Cn2ccc(Cl)n2)nn1-c1ncccc1Cl [I-1-103]	2.96
CNC(=O)c1cc(Cl)cc(C)c1NC(=O)c1cc(Cn2nnc(-c3ccc(C(F)(F)F)cc3)n2)nn1-c1ncccc1Cl [I-1-104]	3.79
Cc1cc(Cl)cc(C(=O)NC(C)C)c1NC(=O)c1cc(Cn2nnc(-c3ccc(C(F)(F)F)cc3)n2)nn1-c1ncccc1Cl [I-1-105]	4.14
Cc1cc(Cl)cc(C(N)=O)c1NC(=O)c1cc(Cn2nnc(-c3ccc(C(F)(F)F)cc3)n2)nn1-c1ncccc1Cl [I-1-106]	3.46
Cc1cc(Cl)cc(C(=O)NCC#N)c1NC(=O)c1cc(Cn2nnc(-c3ccc(C(F)(F)F)cc3)n2)nn1-c1ncccc1Cl [I-1-107]	3.65
CNC(=O)c1cc(Cl)cc(C)c1NC(=O)c1cc(Cn2nnn(-c3ccc(C(F)(F)F)c(Cl)c3)c2=O)nn1-c1ncccc1Cl [I-1-108]	3.90
CNC(=O)c1cc(Cl)cc(C)c1NC(=O)c1cc(Cn2nnn(-c3ccc(C(F)(F)F)cc3Cl)c2=O)nn1-c1ncccc1Cl [I-1-109]	3.51
CNC(=O)c1cc(Cl)cc(C)c1NC(=O)c1cc(Cn2cc(I)c(I)n2)nn1-c1ncccc1Cl [I-1-110]	3.13
Cc1cc(Cl)cc(C(=O)NC(C)C)c1NC(=O)c1cc(Cn2cc(I)c(I)n2)nn1-c1ncccc1Cl [I-1-111]	3.58

Structure (SMILES)	logP
CNC(=O)c1cc(Cl)cc(C)c1NC(=O)c1cc(Cn2nnc(-c3cc(C(F)(F)F)cc(C(F)(F)F)c3)n2)nn1-c1ncccc1Cl [I-1-112]	4.28
Cc1cc(Br)cc(C(=O)NC(C)C[S+](C)[O-])c1NC(=O)c1cc(Cn2cc(Br)c(C(F)(F)F)n2)nn1-c1ncccc1Cl (stereo not drawn) [I-1-113]	2.97
Cc1cc(Cl)cc(C(N)=O)c1NC(=O)c1cc(Cn2nnc(-c3cc(C(F)(F)F)cc(C(F)(F)F)c3)n2)nn1-c1ncccc1Cl [I-1-114]	4.03
Cc1cc(Cl)cc(C(=O)NC(C)C)c1NC(=O)c1cc(Cn2nnn(C)c2=O)nn1-c1ncccc1Cl [I-1-115]	2.31
CNC(=O)c1cc(Cl)cc(C)c1NC(=O)c1cc(Cn2nc(C(F)(F)F)n(C)c2=O)nn1-c1ncccc1Cl [I-1-116]	2.44
Cc1cc(Cl)cc(C(=O)NC(C)C)c1NC(=O)c1cc(Cn2nc(C(F)(F)F)n(C)c2=O)nn1-c1ncccc1Cl [I-1-117]	2.85
CNC(=O)c1cc(Cl)cc(C)c1NC(=O)c1cc(Cn2nc(C(F)(F)F)n(-c3ccccc3)c2=O)nn1-c1ncccc1Cl [I-1-118]	3.10
Cc1cc(Cl)cc(C(=O)NC(C)C)c1NC(=O)c1cc(Cn2nc(C(F)(F)F)n(-c3ccccc3)c2=O)nn1-c1ncccc1Cl [I-1-119]	3.54
Cc1cc(Cl)cc(C(=O)NC(C)CS(C)(=N)=O)c1NC(=O)c1cc(Cn2nc(C(F)(F)F)nc2C(F)(F)F)nn1-c1ncccc1Cl (stereo not drawn) [I-1-120]	2.75
Cc1cc(Br)cc(C(=O)NC(C)(C)CS(C)(=O)=O)c1NC(=O)c1cc(Cn2cc(Br)c(C(F)(F)F)n2)nn1-c1ncccc1Cl [I-1-121]	3.57
CNC(=O)c1cc(Cl)cc(C)c1NC(=O)c1cc(Cn2nnn(CC(F)(F)F)c2=O)nn1-c1ncccc1Cl [I-1-122]	2.51
Cc1cc(Cl)cc(C(=O)NC(C)C)c1NC(=O)c1cc(Cn2nnn(CC(F)(F)F)c2=O)nn1-c1ncccc1Cl [I-1-123]	2.92
CNC(=O)c1cc(Cl)cc(C)c1NC(=O)c1cc(Cn2ccc(Br)n2)nn1-c1ncccc1Cl [I-1-125]	2.56
Cc1cc(Cl)cc(C(=O)NC(C)C)c1NC(=O)c1cc(Cn2nc(C(F)(F)F)n(C3CC3)c2=O)nn1-c1ncccc1Cl [I-1-126]	3.18
CNC(=O)c1cc(Cl)cc(C)c1NC(=O)c1cc(Cn2nc(C(F)(F)F)n(C3CC3)c2=O)nn1-c1ncccc1Cl [I-1-127]	2.74
Cc1cc(Cl)cc(C(=O)NC(C)(C)C[S+](C)[O-])c1NC(=O)c1cc(Cn2cc(Br)c(C(F)(F)F)n2)nn1-c1ncccc1Cl (stereo not drawn) [I-1-128]	3.25
Cc1cc(Cl)cc(C(=O)N[C@@H](C)CS(C)(=O)=O)c1NC(=O)c1cc(Cn2nc(C(F)(F)F)nc2C(F)(F)F)nn1-c1ncccc1Cl [I-1-129]	3.27
CSC[C@H](C)NC(=O)c1cc(Cl)cc(C)c1NC(=O)c1cc(Cn2cc(Br)c(C(F)(F)F)n2)nn1-c1ncccc1Cl [I-1-130]	4.11
CSCC(C)(C)NC(=O)c1cc(Cl)cc(C)c1NC(=O)c1cc(Cn2cc(Br)c(C(F)(F)F)n2)nn1-c1ncccc1Cl [I-1-131]	4.48

Structure (SMILES)	logP
CNC(=O)c1cc(Cl)cc(C)c1NC(=O)c1cc(Cn2cnc(C(F)(F)F)c2)nn1-c1ncccc1Cl [I-1-132]	2.39
Cc1cc(Cl)cc(C(=O)NC(C)C)c1NC(=O)c1cc(Cn2cnc(C(F)(F)F)c2)nn1-c1ncccc1Cl [I-1-133]	2.77
CSCC(C)(C)NC(=O)c1cc(Br)cc(C)c1NC(=O)c1cc(Cn2nc(C(F)(F)F)nc2C(F)(F)F)nn1-c1ncccc1Cl [I-1-134]	4.63
CSC[C@H](C)NC(=O)c1cc(Br)cc(C)c1NC(=O)c1cc(Cn2nc(C(F)(F)F)nc2C(F)(F)F)nn1-c1ncccc1Cl [I-1-135]	4.24
Cc1cc(Cl)cc(C(=O)NC(C)(C)C[S+](C)[O-])c1NC(=O)c1cc(Cn2cc(Br)c(C(F)(F)F)n2)nn1-c1ncccc1Cl (stereo not drawn) [I-1-136]	3.23
Cc1cc(Cl)cc(C(=O)NC(C)(C)C[S+](C)[O-])c1NC(=O)c1cc(Cn2nc(C(F)(F)F)nc2C(F)(F)F)nn1-c1ncccc1Cl (stereo not drawn) [I-1-137]	3.22
Cc1cc(Cl)cc(C(=O)N[C@@H](C)C[S+](C)[O-])c1NC(=O)c1cc(Cn2cc(Br)c(C(F)(F)F)n2)nn1-c1ncccc1Cl (stereo partly drawn) [I-1-138]	2.91
Cc1cc(Cl)cc(C(=O)NC(C)(C)CS(C)(=O)=O)c1NC(=O)c1cc(Cn2nc(C(F)(F)F)nc2C(F)(F)F)nn1-c1ncccc1Cl [I-1-139]	3.50
Cc1cc(Br)cc(C(=O)N[C@@H](C)C[S+](C)[O-])c1NC(=O)c1cc(Cn2nc(C(F)(F)F)nc2C(F)(F)F)nn1-c1ncccc1Cl (stereo partly drawn) [I-1-140]	3.05
Cc1cc(Cl)cc(C(=O)N[C@@H](C)CS(C)(=O)=O)c1NC(=O)c1cc(Cn2cc(Br)c(C(F)(F)F)n2)nn1-c1ncccc1Cl [I-1-141]	3.26
Cc1cc(Br)cc(C(=O)NC(C)(C)CS(C)(=O)=O)c1NC(=O)c1cc(Cn2nc(C(F)(F)F)nc2C(F)(F)F)nn1-c1ncccc1Cl [I-1-142]	3.67
Cc1cc(Br)cc(C(=O)NC(C)(C)C[S+](C)[O-])c1NC(=O)c1cc(Cn2nc(C(F)(F)F)nc2C(F)(F)F)nn1-c1ncccc1Cl (stereo not drawn) [I-1-143]	3.20
Cc1cc(Br)cc(C(=O)NC(C)(C)C[S+](C)[O-])c1NC(=O)c1cc(Cn2nc(C(F)(F)F)nc2C(F)(F)F)nn1-c1ncccc1Cl (stereo not drawn) [I-1-144]	3.38
Cc1cc(Cl)cc(C(=O)NC(C)(C)CS(C)(=O)=O)c1NC(=O)c1cc(Cn2cc(Br)c(C(F)(F)F)n2)nn1-c1ncccc1Cl [I-1-145]	3.56
Cc1cc(Br)cc(C(=O)N[C@@H](C)CS(C)(=O)=O)c1NC(=O)c1cc(Cn2nc(C(F)(F)F)nc2C(F)(F)F)nn1-c1ncccc1Cl [I-1-146]	3.36
Cc1cc(Cl)cc(C(=O)N[C@@H](C)C[S+](C)[O-])c1NC(=O)c1cc(Cn2nc(C(F)(F)F)nc2C(F)(F)F)nn1-c1ncccc1Cl (stereo partly drawn) [I-1-147]	2.95
CNC(=O)c1cc(Cl)cc(C)c1NC(=O)c1cc(Cn2nnc(-c3ccc(Cl)nc3)n2)nn1-c1ncccc1Cl [I-1-148]	2.91
Cc1cc(Cl)cc(C(=O)NC(C)C)c1NC(=O)c1cc(Cn2nnc(-c3ccc(Cl)nc3)n2)nn1-c1ncccc1Cl [I-1-149]	3.41
CNC(=O)c1cc(Cl)cc(C)c1NC(=O)c1cc(Cn2nnc(-c3ccc(Br)cc3)n2)nn1-c1ncccc1Cl [I-1-150]	3.70

Source: patent publication US8101550B2, “Anthranilic acid diamide derivative with hetero-aromatic and hetero-cyclic substituents” (Bayer Cropscience AG, priority 2006, dated 2012)
